Activity calls are given as the source filed them.
How the values were obtained:
Caspase-3 = target: T1, Caspase-3 (Homo sapiens, UniProt P42574); type: functional;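 also: Dose-response selectivity test against caspase-3 for candidate inhibitors of sentrin-specific proteases (SENPs)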
T1 sequence (P42574 whole entry): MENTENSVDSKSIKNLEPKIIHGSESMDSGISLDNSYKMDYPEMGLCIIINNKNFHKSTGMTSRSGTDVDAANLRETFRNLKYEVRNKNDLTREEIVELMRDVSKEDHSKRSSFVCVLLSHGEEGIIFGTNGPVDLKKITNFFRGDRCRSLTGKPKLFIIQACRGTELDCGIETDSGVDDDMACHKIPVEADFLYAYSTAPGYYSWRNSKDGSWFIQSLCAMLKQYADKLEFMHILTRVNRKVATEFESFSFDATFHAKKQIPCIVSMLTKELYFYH

[1] = target: T2, Sentrin-specific protease 7 (Homo sapiens, UniProt Q9BQF6); type: functional;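 also: Luminescence-based dose-response confirmation of ultra-high-throughput screening hits, measuring inhibition of SENP7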
T2 sequence (Q9BQF6 whole entry): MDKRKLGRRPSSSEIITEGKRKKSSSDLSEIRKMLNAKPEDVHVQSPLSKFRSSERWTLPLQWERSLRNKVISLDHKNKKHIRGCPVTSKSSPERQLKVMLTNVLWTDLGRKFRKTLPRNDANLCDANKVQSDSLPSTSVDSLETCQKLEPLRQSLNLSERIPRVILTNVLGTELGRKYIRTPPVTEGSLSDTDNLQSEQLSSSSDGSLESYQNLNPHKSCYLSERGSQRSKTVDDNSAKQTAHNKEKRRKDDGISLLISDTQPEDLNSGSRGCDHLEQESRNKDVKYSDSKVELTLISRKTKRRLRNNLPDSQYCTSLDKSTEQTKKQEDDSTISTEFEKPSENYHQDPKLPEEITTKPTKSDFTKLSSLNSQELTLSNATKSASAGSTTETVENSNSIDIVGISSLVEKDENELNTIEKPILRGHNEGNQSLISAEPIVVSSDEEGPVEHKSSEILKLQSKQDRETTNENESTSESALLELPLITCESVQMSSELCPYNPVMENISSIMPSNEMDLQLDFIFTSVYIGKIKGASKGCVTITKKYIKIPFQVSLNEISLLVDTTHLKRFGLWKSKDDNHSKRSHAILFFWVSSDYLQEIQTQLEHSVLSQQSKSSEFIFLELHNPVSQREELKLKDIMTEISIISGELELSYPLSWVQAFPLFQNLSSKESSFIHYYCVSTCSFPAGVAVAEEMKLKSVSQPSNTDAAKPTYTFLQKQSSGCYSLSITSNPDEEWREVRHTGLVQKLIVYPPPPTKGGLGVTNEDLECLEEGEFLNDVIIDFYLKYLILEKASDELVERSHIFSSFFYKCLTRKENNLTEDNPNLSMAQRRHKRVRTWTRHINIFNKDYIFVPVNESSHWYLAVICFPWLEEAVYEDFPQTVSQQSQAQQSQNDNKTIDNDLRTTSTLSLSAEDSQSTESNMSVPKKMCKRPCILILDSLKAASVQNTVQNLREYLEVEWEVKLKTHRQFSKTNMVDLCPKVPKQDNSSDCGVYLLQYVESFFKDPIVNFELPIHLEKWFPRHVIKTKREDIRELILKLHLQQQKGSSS

[2] = target: T3, Sentrin-specific protease 6 (Homo sapiens, UniProt Q9GZR1); type: functional;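 also: Luminescence-based dose-response confirmatory assay of SENP6 inhibition, following up an ultra-high-throughput screen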
T3 sequence (Q9GZR1 whole entry): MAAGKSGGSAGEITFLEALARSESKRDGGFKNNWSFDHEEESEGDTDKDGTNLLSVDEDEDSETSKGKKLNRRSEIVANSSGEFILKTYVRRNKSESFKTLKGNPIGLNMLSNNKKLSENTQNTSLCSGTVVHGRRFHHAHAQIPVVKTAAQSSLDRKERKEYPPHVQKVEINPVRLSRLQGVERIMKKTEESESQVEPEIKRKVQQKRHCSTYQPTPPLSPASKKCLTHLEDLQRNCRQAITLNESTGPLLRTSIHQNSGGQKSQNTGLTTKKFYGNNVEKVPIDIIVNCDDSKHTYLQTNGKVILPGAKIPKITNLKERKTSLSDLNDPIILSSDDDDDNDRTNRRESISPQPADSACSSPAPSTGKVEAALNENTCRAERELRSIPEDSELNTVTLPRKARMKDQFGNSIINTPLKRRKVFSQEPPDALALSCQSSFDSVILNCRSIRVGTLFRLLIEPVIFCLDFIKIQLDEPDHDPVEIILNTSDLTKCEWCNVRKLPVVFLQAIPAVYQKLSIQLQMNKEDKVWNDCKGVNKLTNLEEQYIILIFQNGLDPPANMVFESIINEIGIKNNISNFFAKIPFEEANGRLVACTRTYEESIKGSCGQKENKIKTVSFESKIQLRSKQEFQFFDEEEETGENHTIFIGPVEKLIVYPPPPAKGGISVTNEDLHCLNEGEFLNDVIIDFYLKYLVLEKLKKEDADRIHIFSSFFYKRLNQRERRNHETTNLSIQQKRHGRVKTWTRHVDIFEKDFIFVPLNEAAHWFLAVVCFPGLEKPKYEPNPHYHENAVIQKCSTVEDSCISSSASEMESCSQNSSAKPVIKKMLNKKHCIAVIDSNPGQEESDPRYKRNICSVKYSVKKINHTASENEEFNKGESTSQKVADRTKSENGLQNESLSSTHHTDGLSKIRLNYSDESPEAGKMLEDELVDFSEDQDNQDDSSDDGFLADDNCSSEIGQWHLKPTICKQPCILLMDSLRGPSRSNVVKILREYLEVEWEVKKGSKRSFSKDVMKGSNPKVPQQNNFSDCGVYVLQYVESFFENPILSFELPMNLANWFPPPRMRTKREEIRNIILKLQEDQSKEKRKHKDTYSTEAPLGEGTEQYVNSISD

[3] = target: T4, Sentrin-specific protease 8 (Homo sapiens, UniProt Q96LD8); type: functional;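 also: luminescence read-out of SENP8 inhibition, dose-response confirmation following an ultra-high-throughput screen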
T4 sequence (Q96LD8 whole entry): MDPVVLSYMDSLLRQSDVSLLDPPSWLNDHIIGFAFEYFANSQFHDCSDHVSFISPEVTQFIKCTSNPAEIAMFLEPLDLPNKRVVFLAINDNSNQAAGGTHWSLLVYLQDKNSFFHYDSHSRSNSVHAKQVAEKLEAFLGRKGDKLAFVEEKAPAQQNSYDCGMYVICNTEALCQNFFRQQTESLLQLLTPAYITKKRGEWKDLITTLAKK

[4] = target: T5, Oxysterols receptor LXR-beta (Homo sapiens, UniProt P55055); type: functional, cell-based;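 also: Cell-based luminescence dose-response assay of agonist activity at LXR, run as a confirmatory counterscreen to a daf-12 agonist screen; agonist potency from rising luciferase signal of a Gal4-LXR reporter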
T5 sequence (P55055 whole entry): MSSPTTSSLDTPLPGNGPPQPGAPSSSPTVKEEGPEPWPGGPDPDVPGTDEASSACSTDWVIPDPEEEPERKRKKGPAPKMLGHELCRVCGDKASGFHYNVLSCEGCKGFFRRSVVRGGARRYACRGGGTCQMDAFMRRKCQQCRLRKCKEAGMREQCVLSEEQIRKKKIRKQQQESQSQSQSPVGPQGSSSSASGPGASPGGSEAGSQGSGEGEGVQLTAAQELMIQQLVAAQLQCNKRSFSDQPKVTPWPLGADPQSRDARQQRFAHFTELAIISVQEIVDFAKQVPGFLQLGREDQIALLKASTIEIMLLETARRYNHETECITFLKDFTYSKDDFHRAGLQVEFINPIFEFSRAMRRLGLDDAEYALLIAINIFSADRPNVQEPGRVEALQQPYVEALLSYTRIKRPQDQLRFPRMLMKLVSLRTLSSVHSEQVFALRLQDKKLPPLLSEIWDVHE

[5] = target: T6, Heat shock factor protein 1 (Mus musculus, UniProt P38532); test: HSF1 potentiators in luciferase reporter cells, confirmation, cell-based, NIH3T3, luminescence, dose retest (AID 435004); type: functional;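 also: stress induced by proteasome inhibitor MG132 added 30 min after compound; luciferase reporter driven by HSF1 response element in NIH3T3 cells; actives raise luminescence as potentiators of the MG132 stress response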
T6 sequence (P38532 whole entry): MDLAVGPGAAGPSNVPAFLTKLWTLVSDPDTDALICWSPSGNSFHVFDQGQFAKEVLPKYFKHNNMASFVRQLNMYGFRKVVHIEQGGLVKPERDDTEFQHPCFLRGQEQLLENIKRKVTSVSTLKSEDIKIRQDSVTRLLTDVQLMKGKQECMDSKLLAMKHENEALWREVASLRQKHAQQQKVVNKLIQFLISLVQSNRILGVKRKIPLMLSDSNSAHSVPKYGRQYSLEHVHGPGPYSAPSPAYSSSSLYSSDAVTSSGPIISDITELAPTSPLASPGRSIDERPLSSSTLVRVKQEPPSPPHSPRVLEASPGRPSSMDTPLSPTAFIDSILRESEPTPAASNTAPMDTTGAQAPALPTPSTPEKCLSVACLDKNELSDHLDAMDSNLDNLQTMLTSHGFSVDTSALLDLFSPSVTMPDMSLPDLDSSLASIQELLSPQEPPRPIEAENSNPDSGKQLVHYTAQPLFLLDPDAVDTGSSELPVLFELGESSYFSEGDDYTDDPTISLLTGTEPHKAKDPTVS

[6] = Luminescence-based cell-based high throughput dose response assay to identify activators of the DAF-12 from the parasite S. stercoralis (ssDAF-12).; type: functional
[7] = target: T5, Oxysterols receptor LXR-beta; test: LXR agonists, Gal4 luciferase reporter, dose response, counter-screen for ssDAF-12 agonist project, cell-based, luminescence, HEK293, S. stercoralis campaign (AID 720737); type: functional; settings: read-out: IC50 (the source's name)
Caspase-6 = target: T7, Caspase-6 (Homo sapiens, UniProt P55212); test: human caspase-6 inhibitors, dose response, biochemical, VEID-R110 fluorescence, cherry-pick (AID 720632)
T7 sequence (P55212 whole entry): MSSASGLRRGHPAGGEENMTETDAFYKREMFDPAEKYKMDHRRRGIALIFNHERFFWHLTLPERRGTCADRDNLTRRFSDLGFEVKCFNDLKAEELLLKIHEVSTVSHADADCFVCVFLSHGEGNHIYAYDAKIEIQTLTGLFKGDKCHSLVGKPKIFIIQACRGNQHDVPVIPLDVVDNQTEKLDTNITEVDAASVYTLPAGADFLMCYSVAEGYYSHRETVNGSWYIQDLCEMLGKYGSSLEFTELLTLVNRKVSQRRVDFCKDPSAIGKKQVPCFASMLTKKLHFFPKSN

[8] = target: Disintegrin and metalloproteinase domain-containing protein 17 (Homo sapiens, UniProt P78536); test: exosite inhibitors of ADAM17, dose response, biochemical (AID 743260)
Sequence of Disintegrin and metalloproteinase domain-containing protein 17 (P78536 whole entry, the tested form may be a part): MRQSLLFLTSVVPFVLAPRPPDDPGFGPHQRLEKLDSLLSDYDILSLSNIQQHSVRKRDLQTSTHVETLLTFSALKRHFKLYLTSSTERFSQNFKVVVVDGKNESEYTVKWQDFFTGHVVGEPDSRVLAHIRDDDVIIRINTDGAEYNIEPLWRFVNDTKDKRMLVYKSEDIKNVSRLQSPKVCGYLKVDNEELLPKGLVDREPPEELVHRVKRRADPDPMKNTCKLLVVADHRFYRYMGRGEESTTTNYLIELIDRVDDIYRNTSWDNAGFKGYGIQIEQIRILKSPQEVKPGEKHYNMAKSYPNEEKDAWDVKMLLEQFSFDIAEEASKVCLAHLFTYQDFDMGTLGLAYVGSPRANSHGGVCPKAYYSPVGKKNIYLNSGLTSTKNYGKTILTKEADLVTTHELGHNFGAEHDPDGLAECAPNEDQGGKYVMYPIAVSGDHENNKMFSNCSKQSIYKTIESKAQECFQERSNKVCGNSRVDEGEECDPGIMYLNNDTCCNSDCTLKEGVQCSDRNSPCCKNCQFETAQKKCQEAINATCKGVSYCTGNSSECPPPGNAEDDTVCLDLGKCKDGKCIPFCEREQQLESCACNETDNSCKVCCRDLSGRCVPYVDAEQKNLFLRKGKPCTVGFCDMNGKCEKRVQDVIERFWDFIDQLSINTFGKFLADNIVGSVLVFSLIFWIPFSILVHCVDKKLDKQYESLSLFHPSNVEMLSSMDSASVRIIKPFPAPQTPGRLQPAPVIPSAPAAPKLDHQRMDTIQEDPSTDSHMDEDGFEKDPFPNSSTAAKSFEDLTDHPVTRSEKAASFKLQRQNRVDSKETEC

[9] = ADAM10 protease inhibitors, dose response, selectivity assay for ADAM17 exosite inhibitor project, biochemical, FRET peptide substrate, recombinant human ADAM10 (AID 743259);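 also: ADAM10 enzyme cleaving a FRET peptide substrate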
[10] = A549 cell cytotoxicity, dose response, cytotoxicity control, plate reader, cherry-pick, antagonist series (AID 743412); type: functional, cell-based
[11] = LGR2 antagonists, dose response, cell-based, HEK293, CRE-luciferase reporter, cherry pick, set 2 (AID 743343); type: functional;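 also: transfected cells were stimulated with diluted bursicon conditioned medium after compound addition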
[12] = MC4R antagonists, dose response, counter-screen for LGR2 antagonist project, cell-based, plate reader, cherry pick (AID 743444); type: functional;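 also: transfected HEK 293 cells stimulated with alpha-MSH peptide; potency of inhibitors of the alpha-MSH evoked signal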
[13] = test system: Streptococcus sp. 'group A'; test: growth inhibition of control SK(-) GAS strain, dose response, counter-screen for streptokinase expression inhibitor project, luminescence, kanamycin, BacTiterGlo, confirmation (AID 1900); type: functional, organism-based
Streptokinase A = target: T8, Streptokinase A (Streptococcus pyogenes serotype M1, UniProt P10520); test: S. pyogenes streptokinase expression inhibitors, potency, dose response, plasminogen activation absorbance, OD405 (AID 1914); type: functional, Streptococcus pyogenes M1 GAS;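 also: secreted streptokinase activity via plasminogen activation per viability signal from cell pellet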
T8 sequence (P10520 whole entry): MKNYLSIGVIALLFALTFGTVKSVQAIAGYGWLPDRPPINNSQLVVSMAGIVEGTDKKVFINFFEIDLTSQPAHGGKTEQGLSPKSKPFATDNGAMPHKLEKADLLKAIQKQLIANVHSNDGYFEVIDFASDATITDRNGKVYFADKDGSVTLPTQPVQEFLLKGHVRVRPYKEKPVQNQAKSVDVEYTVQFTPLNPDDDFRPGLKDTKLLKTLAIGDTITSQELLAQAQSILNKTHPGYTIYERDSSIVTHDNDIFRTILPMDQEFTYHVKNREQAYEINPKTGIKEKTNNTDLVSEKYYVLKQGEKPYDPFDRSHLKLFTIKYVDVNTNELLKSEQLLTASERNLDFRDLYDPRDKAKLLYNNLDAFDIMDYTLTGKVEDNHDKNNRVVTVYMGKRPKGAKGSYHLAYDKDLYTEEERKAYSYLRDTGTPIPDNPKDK

Streptococcus = test: Group A Streptococcus viability loss, dose response, counter-screen for streptokinase expression inhibitor project, luminescence, BacTiterGlo (AID 1915); type: functional, organism-based;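 also: potency for reduction of bacterial viability or growth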
[14] = human group III sPLA2 inhibitors, dose response, biochemical, QFRET, IC50 (AID 743457);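 also: green fluorescence rise as the enzyme cleaves BODIPY PC-A2 in liposomes; potency for inhibition of the enzyme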

## Cc1ccc(-c2cc(-c3ccccc3)no2)cc1
Caspase-3
  IC50: 21.7 µM (active)
[1]
  IC50: 14.3 µM (active)
[2]
  IC50: 18.6 µM (active)
[3]
  IC50: 23.7 µM (active)
[4]
  EC50: > 67.5 µM (inactive)
cells
  EC50: > 67.5 µM (inactive)

## O=C(Nc1ccccn1)c1ccc2ccccc2n1
[5]
  EC50: > 260 µM (inactive)
[6]
  IC50: > 67.5 µM (inactive)
[7]
  EC50: > 67.5 µM (inactive)

## CCc1nnc(N/N=C/c2cc(C)c(C)cc2C)n1N
Caspase-6
  AC50: 39.8 µM (active)

## Cc1ccc(C(=O)Nc2ccc3c(c2)OCO3)cc1
[6]
  IC50: > 67.5 µM (inactive)
[7]
  EC50: > 67.5 µM (inactive)

## Nc1c(Br)cc2oc(-c3ccccc3)nc2c1Br
[4]
  EC50: > 67.5 µM (inactive)
cells
  EC50: > 67.5 µM (inactive)

## O=C(CN1C(=O)c2ccccc2S1(=O)=O)Nc1cc(S(=O)(=O)N2CCCCC2)ccc1Cl
[8]
  IC50: > 69.5 µM (inactive)
[9]
  IC50: > 69.5 µM (inactive)

## COc1cc(-c2noc(C)c2/C=C/c2ccc(C(=O)O)cc2)cc(OC)c1OC
Caspase-6
  AC50: 23.2 µM (active)

## Cc1ccccc1-c1ccc([C@H]2[C@@H](CO)N3CCCCN(S(=O)(=O)c4ccc(F)cc4)C[C@@H]23)cc1
[10]
  AC50: 19.8 µM (active)
[11]
  AC50: 9.92 µM (active)
[12]
  AC50: 8.3 µM (active)

## CC(C)(C)[S+]([O-])N1Cc2cc(C(=O)NCC(F)(F)F)nc(-c3cccc(-c4cccc(F)c4)c3)c2[C@H]1CCO (stereo not given in full)
[8]
  IC50: > 69.5 µM (inactive)
[9]
  IC50: > 7.72 µM (active)

## Cc1nc2ccc(S(=O)(=O)NCC(=O)NCc3ccc4c(c3)OCO4)cc2s1
[8]
  IC50: > 69.5 µM (inactive)
[9]
  IC50: > 69.5 µM (inactive)

## NNC(=O)/C(=N/Nc1ccccc1)S(=O)(=O)c1ccc(Cl)cc1
[13]
  EC50: 6.91 µM (active)
Streptokinase A
  EC50: > 150 µM (not active)
Streptococcus
  EC50: > 150 µM (not active)
[14]
  IC50: 47.3 µM (inactive)

## CNCC(O)Cn1c2c(c3ccccc31)CCCC2 (stereo not given)
[6]
  IC50: > 67.6 µM (inactive)
[7]
  EC50: > 67.6 µM (inactive)

Source: ChEMBL document CHEMBL1201862, “PubChem BioAssay data set” (2004)
